Experimental findings from the NIST ThermoML archive (doi:10.1007/s10765-011-0939-5) are described below.

The conditions of this data set: Crystal; triple pt. cell.

Numbers after ± are expanded uncertainties.

`[20Ne]` [neon-20]: the Triple point temperature was 24.54 ± 8e-05 K.
`[22Ne]` [neon-22]: the Triple point temperature is reported as 24.69 ± 8e-05 K.
